The NIST ThermoML archive (doi:10.1021/je060033f)
± gives the expanded uncertainty stated by the source.

Test: activity coefficient (dimensionless); of the first substance listed, at infinite dilution; xn = mol fraction of the nth substance listed
Conditions: 323.15 K; 101 kPa; Liquid; Chromatography; x1 = 0

Row | Structure (SMILES) | activity coefficient
1 | ClC(Cl)Cl [trichloromethane] + C=CC[n+]1ccn(CCCCCCCCCCCC)c1.[Br-] | 0.12 ± 0.03
2 | CCC[N+](=O)[O-] [1-nitropropane] + CCCCCCCC[n+]1ccn(CCCB(O)O)c1.[Br-] | 1.58 ± 0.1
3 | C1COCCO1 [1,4-dioxane] + C=CC[n+]1ccn(CCCCCCCC)c1.[Br-] | 1.52 ± 0.1
4 | ClC(Cl)Cl [trichloromethane] + C[n+]1ccn(CCCB(O)O)c1.[Br-] | 3.01 ± 0.2
5 | C1COCCO1 [1,4-dioxane] + C=CC[n+]1ccn(CCCCCCCCCC)c1.[Br-] | 1.39 ± 0.09
6 | c1ccccc1 [benzene] + C[n+]1ccn(CCCB(O)O)c1.[Br-] | 18.1 ± 1.2
7 | c1ccccc1 [benzene] + C=CC[n+]1ccn(CCCCCCCC)c1.[Br-] | 1.4 ± 0.09
8 | ClC(Cl)(Cl)Cl [tetrachloromethane] + CCCCCCCCCC[n+]1ccn(CCCB(O)O)c1.[Br-] | 0.79 ± 0.05
9 | C1COCCO1 [1,4-dioxane] + CCCCCCCCCC[n+]1ccn(CCCB(O)O)c1.[Br-] | 1.38 ± 0.09
10 | c1ccccc1 [benzene] + C=CCn1cc[n+](C)c1.[Br-] | 3.6 ± 0.25
11 | C1COCCO1 [1,4-dioxane] + CCCCCCCC[n+]1ccn(CCCB(O)O)c1.[Br-] | 1.78 ± 0.12
12 | Cc1ccccc1 [toluene] + C=CCn1cc[n+](C)c1.[Br-] | 6.19 ± 0.42
13 | CCC[N+](=O)[O-] [1-nitropropane] + C=CC[n+]1ccn(CCCCCCCC)c1.[Br-] | 1.23 ± 0.08
14 | ClC(Cl)Cl [trichloromethane] + C=CC[n+]1ccn(CCCCCCCC)c1.[Br-] | 0.14 ± 0.03
15 | c1ccsc1 [thiophene] + C=CC[n+]1ccn(CCCCCCCC)c1.[Br-] | 0.93 ± 0.06
16 | C1CCCCC1 [cyclohexane] + C=CC[n+]1ccn(CCCCCCCCCC)c1.[Br-] | 5.64 ± 0.38

Row | Structure (SMILES) | activity coefficient
17 | Cc1ccccc1 [toluene] + C[n+]1ccn(CCCB(O)O)c1.[Br-] | 38.8 ± 2.6
18 | ClC(Cl)Cl [trichloromethane] + CCCCCCCCCCCC[n+]1ccn(CCCB(O)O)c1.[Br-] | 0.19 ± 0.03
19 | Cc1cccc(C)c1 [1,3-dimethylbenzene] + C=CC[n+]1ccn(CCCCCCCC)c1.[Br-] | 2.73 ± 0.19
20 | Cc1ccccc1C [1,2-dimethylbenzene] + C=CC[n+]1ccn(CCCCCCCCCC)c1.[Br-] | 2.34 ± 0.16
21 | CCC[N+](=O)[O-] [1-nitropropane] + C=CCn1cc[n+](C)c1.[Br-] | 1.83 ± 0.12
22 | c1ccsc1 [thiophene] + CCCCCCCCCC[n+]1ccn(CCCB(O)O)c1.[Br-] | 0.79 ± 0.05
23 | ClC(Cl)Cl [trichloromethane] + CCCCCCCCCC[n+]1ccn(CCCB(O)O)c1.[Br-] | 0.12 ± 0.03
24 | ClC(Cl)(Cl)Cl [tetrachloromethane] + CCCCCCCCCCCC[n+]1ccn(CCCB(O)O)c1.[Br-] | 0.9 ± 0.06
25 | CCC(C)=O [butanone] + C=CC[n+]1ccn(CCCCCCCCCCCC)c1.[Br-] | 1.43 ± 0.09
26 | CCC[N+](=O)[O-] [1-nitropropane] + C[n+]1ccn(CCCB(O)O)c1.[Br-] | 15.8 ± 1.1
27 | ClC(Cl)(Cl)Cl [tetrachloromethane] + C=CC[n+]1ccn(CCCCCCCC)c1.[Br-] | 0.82 ± 0.05
28 | CCC(C)=O [butanone] + C=CCn1cc[n+](C)c1.[Br-] | 2.68 ± 0.18
29 | Cc1cccc(C)c1 [1,3-dimethylbenzene] + C=CC[n+]1ccn(CCCCCCCCCC)c1.[Br-] | 2.73 ± 0.19
30 | Cc1ccccc1C [1,2-dimethylbenzene] + CCCCCCCCCCCC[n+]1ccn(CCCB(O)O)c1.[Br-] | 1.78 ± 0.12
31 | ClC(Cl)(Cl)Cl [tetrachloromethane] + C=CCn1cc[n+](C)c1.[Br-] | 1.54 ± 0.1
32 | Cc1ccccc1 [toluene] + CCCCCCCCCCCC[n+]1ccn(CCCB(O)O)c1.[Br-] | 3.36 ± 0.23

Now from value to compound:

Row | activity coefficient | Structure (SMILES)
33 | 8.9 ± 0.61 | CCCCCC [hexane] + C=CC[n+]1ccn(CCCCCCCC)c1.[Br-]
34 | 11.4 ± 0.78 | CCCCCCC [heptane] + C=CC[n+]1ccn(CCCCCCCC)c1.[Br-]
35 | 1.78 ± 0.12 | CCCC(C)=O [pentan-2-one] + C=CC[n+]1ccn(CCCCCCCCCC)c1.[Br-]
36 | 0.41 ± 0.03 | ClCCl [dichloromethane] + CCCCCCCC[n+]1ccn(CCCB(O)O)c1.[Br-]
37 | 1.86 ± 0.13 | C#CCCCC [1-hexyne] + CCCCCCCCCCCC[n+]1ccn(CCCB(O)O)c1.[Br-]
38 | 0.33 ± 0.03 | ClCCl [dichloromethane] + C=CCn1cc[n+](C)c1.[Br-]
39 | 3.83 ± 0.26 | CCc1ccccc1 [ethylbenzene] + CCCCCCCCCCCC[n+]1ccn(CCCB(O)O)c1.[Br-]
40 | 77.6 ± 5.3 | CCCCCCC [heptane] + C[n+]1ccn(CCCB(O)O)c1.[Br-]
41 | 42.9 ± 2.9 | C#CCCCCC [1-heptyne] + C[n+]1ccn(CCCB(O)O)c1.[Br-]
42 | 6.34 ± 0.43 | CCCCCCCC [octane] + CCCCCCCCCCCC[n+]1ccn(CCCB(O)O)c1.[Br-]
43 | 2.56 ± 0.17 | CCc1ccccc1 [ethylbenzene] + C=CC[n+]1ccn(CCCCCCCC)c1.[Br-]
44 | 5.93 ± 0.4 | C=CCCCC [hex-1-ene] + C=CC[n+]1ccn(CCCCCCCC)c1.[Br-]
45 | 0.23 ± 0.03 | CCCO [propan-1-ol] + C=CC[n+]1ccn(CCCCCCCCCCCC)c1.[Br-]
46 | 5.45 ± 0.37 | CCCCCC [hexane] + CCCCCCCCCC[n+]1ccn(CCCB(O)O)c1.[Br-]
47 | 8.81 ± 0.6 | CCCCCCCC [octane] + CCCCCCCCCC[n+]1ccn(CCCB(O)O)c1.[Br-]
48 | 1.77 ± 0.12 | C#CCCCC [1-hexyne] + CCCCCCCCCC[n+]1ccn(CCCB(O)O)c1.[Br-]
49 | 0.27 ± 0.03 | ClCCl [dichloromethane] + C=CC[n+]1ccn(CCCCCCCCCC)c1.[Br-]
50 | 4.32 ± 0.29 | CCCC(C)=O [pentan-2-one] + C=CCn1cc[n+](C)c1.[Br-]
51 | 17.4 ± 1.2 | CCCCCCCCC [nonane] + C=CC[n+]1ccn(CCCCCCCC)c1.[Br-]
52 | 0.36 ± 0.03 | CC(C)O [propan-2-ol] + C=CC[n+]1ccn(CCCCCCCC)c1.[Br-]
53 | 0.23 ± 0.03 | CC(C)CO [2-methyl-1-propanol] + C=CC[n+]1ccn(CCCCCCCCCCCC)c1.[Br-]
54 | 11.1 ± 0.76 | CCCCCCC [heptane] + C=CC[n+]1ccn(CCCCCCCCCC)c1.[Br-]
55 | 1.62 ± 0.11 | CCCC(C)=O [pentan-2-one] + C=CC[n+]1ccn(CCCCCCCCCCCC)c1.[Br-]

Row | activity coefficient | Structure (SMILES)
56 | 6.93 ± 0.47 | CCCCCCCCC [nonane] + C=CC[n+]1ccn(CCCCCCCCCCCC)c1.[Br-]
57 | 3.7 ± 0.25 | C#CCCCCC [1-heptyne] + CCCCCCCC[n+]1ccn(CCCB(O)O)c1.[Br-]
58 | 0.25 ± 0.03 | ClCCl [dichloromethane] + CCCCCCCCCC[n+]1ccn(CCCB(O)O)c1.[Br-]
59 | 0.26 ± 0.03 | CCO [ethanol] + C=CC[n+]1ccn(CCCCCCCCCC)c1.[Br-]
60 | 0.69 ± 0.05 | CC(C)O [propan-2-ol] + C=CCn1cc[n+](C)c1.[Br-]
61 | 3.28 ± 0.22 | CCc1ccccc1 [ethylbenzene] + CCCCCCCC[n+]1ccn(CCCB(O)O)c1.[Br-]
62 | 14.9 ± 1 | CCCCCCCC [octane] + C=CC[n+]1ccn(CCCCCCCC)c1.[Br-]
63 | 0.13 ± 0.03 | ClC(Cl)Cl [trichloromethane] + C=CC[n+]1ccn(CCCCCCCCCC)c1.[Br-]
64 | 0.29 ± 0.03 | CC(C)CO [2-methyl-1-propanol] + C=CC[n+]1ccn(CCCCCCCC)c1.[Br-]
65 | 1.21 ± 0.08 | c1ccccc1 [benzene] + CCCCCCCCCCCC[n+]1ccn(CCCB(O)O)c1.[Br-]
66 | 2.02 ± 0.14 | C#CCCCC [1-hexyne] + C=CC[n+]1ccn(CCCCCCCCCC)c1.[Br-]
67 | 8.15 ± 0.56 | C1CCCCC1 [cyclohexane] + CCCCCCCC[n+]1ccn(CCCB(O)O)c1.[Br-]
68 | 0.17 ± 0.03 | CO [methanol] + C=CC[n+]1ccn(CCCCCCCC)c1.[Br-]
69 | 1.63 ± 0.11 | CCCC(C)=O [pentan-2-one] + CCCCCCCCCCCC[n+]1ccn(CCCB(O)O)c1.[Br-]
70 | 0.05 | CO [methanol] + CCCCCCCCCC[n+]1ccn(CCCB(O)O)c1.[Br-]
71 | 7.04 ± 0.48 | CCCCCCC [heptane] + CCCCCCCCCC[n+]1ccn(CCCB(O)O)c1.[Br-]
72 | 2.37 ± 0.16 | CCc1ccccc1 [ethylbenzene] + CCCCCCCCCC[n+]1ccn(CCCB(O)O)c1.[Br-]
73 | 45.1 ± 3.1 | CCc1ccccc1 [ethylbenzene] + C[n+]1ccn(CCCB(O)O)c1.[Br-]
74 | 1.2 ± 0.08 | c1ccsc1 [thiophene] + CCCCCCCC[n+]1ccn(CCCB(O)O)c1.[Br-]
75 | 0.27 ± 0.03 | CCO [ethanol] + C=CC[n+]1ccn(CCCCCCCC)c1.[Br-]
76 | 1.32 ± 0.09 | C1COCCO1 [1,4-dioxane] + CCCCCCCCCCCC[n+]1ccn(CCCB(O)O)c1.[Br-]
77 | 25.1 ± 1.7 | CCCCCC [hexane] + C=CCn1cc[n+](C)c1.[Br-]
